The results in this text go back to patent US6008225A, “Derivatives of antibiotic GE2270 factors C2a, D2 and E” (BioSearch Italia, S.p.A., priority 1996, dated 1999).

The test system of assay [1] is Escherichia coli SKF 12140. Put plainly: MIC by microbroth dilution, Escherichia coli. Format: cell-based. The settings on record: Escherichia coli SKF 12140 (code 47); 0.01% BSA; inocula about 10^4 (1-4), about 5×10^5 cfu/ml (5, 6); 18-24 h. (In general: In broth dilution the organism is exposed to a series of concentrations in liquid medium.)
Another assay deals with Strep. pneumoniae UC41. Put plainly: MIC by microbroth dilution, Strep. pneumoniae. Format: cell-based, Streptococcus pneumoniae. The following applies: Strep. pneumoniae UC41 (code 44); Todd Hewitt broth; 0.01% BSA; inocula about 10^4 (1-4), about 5×10^5 cfu/ml (5, 6); 18-24 h.
In the next assay the test system is Staph. aureus Smith. Put plainly: MIC by microbroth dilution, Staph. aureus Smith. The following applies: Staph. aureus Smith (code 819); 0.01% BSA; inocula about 10^4 (1-4), about 5×10^5 cfu/ml (5, 6); 18-24 h. Format: cell-based, Staphylococcus aureus.
The subject of assay [2] is Bacteroides fragilis ATCC 25285. Briefly: MIC by microbroth dilution, Bacteroides fragilis. The assay is classed as cell-based. The settings on record: Bacteroides fragilis ATCC 25285 (code 1011); anaerobe, 48 h; 0.01% BSA; inocula about 10^5 (1-4), about 5×10^5 cfu/ml (5, 6).
In assay [3] the test system is Clostridium perfringens ISS30543. The assay is classed as cell-based. The following applies: Clostridium perfringens ISS30543 (code 290); anaerobe, 48 h; 0.01% BSA; inocula about 10^5 (1-4), about 5×10^5 cfu/ml (5, 6).
In assay [4] the test system is Propionibacterium acnes ATCC6919. Put plainly: MIC by microbroth dilution, Propionibacterium acnes. The assay is classed as cell-based. The following applies: Propionibacterium acnes ATCC6919 (code 1014); anaerobe, 48 h; 0.01% BSA; inocula about 10^5 (1-4), about 5×10^5 cfu/ml (5, 6).
In assay [5] the test system is Staph. epidermidis ATCC 12228. Briefly: MIC by microbroth dilution, Staph. epidermidis. The assay is classed as cell-based, Staphylococcus epidermidis. The settings on record: Staph. epidermidis ATCC 12228 (code 147); 0.01% BSA; inocula about 10^4 (1-4), about 5×10^5 cfu/ml (5, 6); 18-24 h.
For assay [6], the system named is Proteus vulgaris X19H ATCC881. Briefly: MIC by microbroth dilution, Proteus vulgaris. Format: cell-based. The settings on record: Proteus vulgaris X19H ATCC881 (code 79); 0.01% BSA; inocula about 10^4 (1-4), about 5×10^5 cfu/ml (5, 6); 18-24 h.
Assay [7] concerns Neisseria gonorrhoeae ISM 68/126. Briefly: MIC by microbroth dilution, Neisseria gonorrhoeae. Format: cell-based. The settings on record: Neisseria gonorrhoeae ISM 68/126 (code 997); 5% CO2, 48 h; 0.01% BSA; inocula about 10^4 (1-4), about 5×10^5 cfu/ml (5, 6).
The subject of assay [8] is Enterococcus faecalis ATCC 6919. Briefly: MIC by microbroth dilution, Enterococcus faecalis. Format: cell-based. The settings on record: Enterococcus faecalis ATCC 6919 (code 149); 0.01% BSA; inocula about 10^4 (1-4), about 5×10^5 cfu/ml (5, 6); 18-24 h.
Assay [9] relates to Staph. haemolyticus clin. is. Briefly: MIC by microbroth dilution, Staph. haemolyticus. The assay is classed as cell-based, Staphylococcus haemolyticus. The following applies: Staph. haemolyticus clin. is. (code 602); 0.01% BSA; inocula about 10^4 (1-4), about 5×10^5 cfu/ml (5, 6); 18-24 h.
For assay [10], the system named is Haemophilus influenzae type b ATCC19418. Briefly: MIC by microbroth dilution, Haemophilus influenzae. The settings on record: Haemophilus influenzae type b ATCC19418 (code 970); 5% CO2, 48 h; 0.01% BSA; inocula about 10^4 (1-4), about 5×10^5 cfu/ml (5, 6). The assay is classed as cell-based.
A further assay concerns Strep. pyogenes C203. Briefly: MIC by microbroth dilution, Strep. pyogenes. The following applies: Strep. pyogenes C203 (code 49); Todd Hewitt broth; 0.01% BSA; inocula about 10^4 (1-4), about 5×10^5 cfu/ml (5, 6); 18-24 h. Format: cell-based, Streptococcus pyogenes.
The subject of assay [11] is Pseudomonas aeruginosa ATCC10145. Put plainly: MIC by microbroth dilution, Pseudomonas aeruginosa. The settings on record: Pseudomonas aeruginosa ATCC10145 (code 4); 0.01% BSA; inocula about 10^4 (1-4), about 5×10^5 cfu/ml (5, 6); 18-24 h. The assay is classed as cell-based.
The next assay has as its system Staph. aureus Tour. Put plainly: MIC by microbroth dilution, Staph. aureus Tour. Format: cell-based, Staphylococcus aureus. The following applies: Staph. aureus Tour (code 165), 0.01% BSA, read 18-24 h.
Assay [12] relates to Klebsiella pneumoniae ISM. Briefly: MIC by microbroth dilution, Klebsiella pneumoniae. Format: cell-based. The settings on record: Klebsiella pneumoniae ISM (code 142); 0.01% BSA; inocula about 10^4 (1-4), about 5×10^5 cfu/ml (6); 18-24 h.
The mark [13] stands for this setting: inocula about 10^4 cfu/ml (compounds 1-4), about 5×10^5 cfu/ml (5, 6).

As for `CCN(CC)CCNC(=O)[C@@H]1CCCN1C(=O)[C@@H]1COC(c2csc(-c3ccc4c(n3)-c3csc(n3)-c3csc(n3)C(C(O)c3ccccc3)NC(=O)CNC(=O)c3nc(sc3CN(C)C)[C@H](C(C)C)NC(=O)c3nc(sc3C)[C@H](CC(=O)NC)NC(=O)c3csc-4n3)n2)=N1` (stereo partly drawn) [Compound 6], the “MIC of the compounds” value in assay [1] is more than 128 µg/mL; in the assay on Strep. pneumoniae UC41 it was 0.13 µg/mL; in the assay with Staph. aureus Smith, 0.13 µg/mL; in assay [2], 64 µg/mL; in assay [3] it was 0.06 µg/mL; in assay [4], 16 µg/mL. The “MIC of the compounds” value in assay [5] is 0.5 µg/mL; in assay [6] it was more than 128 µg/mL; in [7], 16 µg/mL; in assay [8] it was 0.13 µg/mL; in assay [9], 0.5 µg/mL; in assay [10], more than 128 µg/mL. Moreover, the “MIC of the compounds” value in the assay on Strep. pyogenes C203 was 0.13 µg/mL; in [11] it was more than 128 µg/mL; with Staph. aureus Tour (setting [13]), 0.13 µg/mL; in assay [12] it was more than 128 µg/mL.

On to `CCN(CC)CCNC(=O)[C@@H]1CCCN1C(=O)[C@@H]1COC(c2csc(-c3ccc4c(n3)-c3csc(n3)-c3csc(n3)C(C(O)c3ccccc3)NC(=O)CNC(=O)c3nc(sc3CO)[C@H](C(C)C)NC(=O)c3nc(sc3C)[C@H](CC(=O)NC)NC(=O)c3csc-4n3)n2)=N1` (stereo partly drawn) [Compound 5], for which the “MIC of the compounds” value is more than 128 µg/mL in assay [1]; 0.13 µg/mL in the assay on Strep. pneumoniae UC41; 0.13 µg/mL in the assay with Staph. aureus Smith; 32 µg/mL in assay [2]; 0.06 µg/mL in [3]; 0.03 µg/mL in assay [4]. Further, the “MIC of the compounds” value in assay [5] is 0.13 µg/mL; in assay [6] it was more than 128 µg/mL; in assay [7], 32 µg/mL; in assay [8] it was 0.06 µg/mL; in [9], 0.13 µg/mL; in [10], 8 µg/mL. The “MIC of the compounds” value is 0.13 µg/mL in the assay with Strep. pyogenes C203; more than 128 µg/mL in assay [11]; 0.13 µg/mL with Staph. aureus Tour (10^6 cfu/ml); 0.25 µg/mL in the assay with Staph. aureus Tour (30% b.s.); 0.06 µg/mL in the assay on Staph. aureus Tour (setting [13]).

`CCN(CC)Cc1sc2nc1C(=O)NCC(=O)NC(C(O)c1ccccc1)c1nc(cs1)-c1nc(cs1)-c1nc(-c3nc(C4=NC(C(=O)N5CCCC5C(N)=O)CO4)cs3)ccc1-c1nc(cs1)C(=O)NC(CC(=O)NC)c1nc(c(C)s1)C(=O)NC2C(C)C` (stereo not drawn) [Compound 1]: the “MIC of the compounds” value in assay [1] was more than 128 µg/mL; in the assay on Strep. pneumoniae UC41, 1 µg/mL; with Staph. aureus Smith, 0.13 µg/mL; in [2], 64 µg/mL; in [3] it was 0.13 µg/mL; in assay [4], 0.03 µg/mL. The “MIC of the compounds” value is more than 128 µg/mL in assay [6]; more than 128 µg/mL in [7]; 0.06 µg/mL in [8]; 0.13 µg/mL in assay [9]; more than 128 µg/mL in [10]; 4 µg/mL with Strep. pyogenes C203. For the same molecule, the “MIC of the compounds” value was more than 128 µg/mL in [11]; 0.25 µg/mL with Staph. aureus Tour (10^6 cfu/ml); 0.5 µg/mL with Staph. aureus Tour (30% b.s.); 0.13 µg/mL in the assay with Staph. aureus Tour (setting [13]); more than 128 µg/mL in assay [12].

Consider `CNC(=O)C[C@@H]1NC(=O)c2csc(n2)-c2ccc(-c3nc(C4=N[C@H](C(=O)N5CCC[C@H]5C(N)=O)CO4)cs3)nc2-c2csc(n2)-c2csc(n2)C(C(O)c2ccccc2)NC(=O)CNC(=O)c2nc(sc2CN(C)CCN(C)C)[C@H](C(C)C)NC(=O)c2nc1sc2C` (stereo partly drawn) [Compound 3], for which the “MIC of the compounds” value in [1] was more than 128 µg/mL; in the assay with Strep. pneumoniae UC41 it was 1 µg/mL; with Staph. aureus Smith, 1 µg/mL; in [2], more than 128 µg/mL; in [3], 4 µg/mL; in assay [4], 0.5 µg/mL. For the same molecule, the “MIC of the compounds” value in [5] is 8 µg/mL; in assay [6], more than 128 µg/mL; in assay [7], more than 128 µg/mL; in assay [8] it was 1 µg/mL; in assay [9] it was 8 µg/mL; in [10] it was more than 128 µg/mL. The “MIC of the compounds” value in the assay on Strep. pyogenes C203 is 2 µg/mL; in assay [11], more than 128 µg/mL; with Staph. aureus Tour (10^6 cfu/ml), 4 µg/mL; in the assay with Staph. aureus Tour (30% b.s.), 1 µg/mL; in the assay with Staph. aureus Tour (setting [13]) it was 1 µg/mL; in [12], more than 128 µg/mL.

Regarding `CNC(=O)CC1NC(=O)c2csc(n2)-c2ccc(-c3nc(C4=NC(C(=O)N5CCCC5C(N)=O)CO4)cs3)nc2-c2csc(n2)-c2csc(n2)C(C(O)c2ccccc2)NC(=O)CNC(=O)c2nc(sc2CN(C)C)C(C(C)C)NC(=O)c2nc1sc2C` (stereo not drawn) [Compound 2], the “MIC of the compounds” value in [1] is more than 128 µg/mL; in the assay with Strep. pneumoniae UC41, 0.13 µg/mL; in the assay on Staph. aureus Smith, 0.13 µg/mL; in assay [2], 128 µg/mL; in assay [3], 0.06 µg/mL; in assay [4], 0.06 µg/mL. Also, the “MIC of the compounds” value is 0.13 µg/mL in assay [5]; more than 128 µg/mL in assay [6]; 4 µg/mL in [7]; 0.06 µg/mL in assay [8]; 0.25 µg/mL in [9]; 8 µg/mL in [10]. The “MIC of the compounds” value in the assay with Strep. pyogenes C203 was 0.5 µg/mL; in assay [11] it was more than 128 µg/mL; in the assay on Staph. aureus Tour (10^6 cfu/ml) it was 0.13 µg/mL; in the assay with Staph. aureus Tour (30% b.s.) it was 0.13 µg/mL; with Staph. aureus Tour (setting [13]), 0.13 µg/mL; in [12] it was more than 128 µg/mL.

In the case of `CCSCc1sc2nc1C(=O)NCC(=O)NC(C(O)c1ccccc1)c1nc(cs1)-c1nc(cs1)-c1nc(-c3nc(C4=N[C@H](C(=O)N5CCC[C@H]5C(N)=O)CO4)cs3)ccc1-c1nc(cs1)C(=O)N[C@@H](CC(=O)NC)c1nc(c(C)s1)C(=O)N[C@H]2C(C)C` (stereo partly drawn) [Compound 4], the “MIC of the compounds” value in assay [1] is more than 128 µg/mL; in the assay with Strep. pneumoniae UC41, 0.5 µg/mL; in the assay on Staph. aureus Smith it was 0.25 µg/mL; in [2], more than 128 µg/mL; in assay [3], 0.016 µg/mL; in [4] it was 0.004 µg/mL. The “MIC of the compounds” value was 4 µg/mL in assay [5]; more than 128 µg/mL in assay [6]; more than 128 µg/mL in assay [7]; 0.06 µg/mL in [8]; 8 µg/mL in assay [9]; more than 128 µg/mL in assay [10]. The “MIC of the compounds” value in the assay with Strep. pyogenes C203 was 64 µg/mL; in assay [11] it was more than 128 µg/mL; with Staph. aureus Tour (setting [13]) it was 0.13 µg/mL; in [12], more than 128 µg/mL.
